Measurements reported in ChEMBL document CHEMBL4819081 (Eur J Med Chem, 2021).
pIC50: −log10 of the molar value. Activity calls are given as the source filed them. The rule behind the calls is not given here.

What was measured:
[1] = target: T1, CDK6/cyclin D3 (Homo sapiens) (UniProt P30281+Q00534); assay: Inhibition of CDK6/Cyclin D3 (unknown origin) at 200 nM using ATP by mobility shift assay; assay type: protein-complex assay
MDA-MB-231 [2] = assay: Induction of cell cycle arrest in human MDA-MB-231 cells assessed as accumulation at S phase at 0.375 uM after 12 hrs by propidium iodide staining-based flow cytometric analysis (reference value: 21.11%); assay type: functional
[3] = Inhibition of clone formation in human MDA-MB-231 cells at 0.625 uM after 14 days by crystal violet staining based-colony formation assay; assay type: functional; conditions: MDA-MB-231, 336 h, time 14 day
L02 = assay: Cytotoxicity against human L02 cells measured upto 20 uM after 72 hrs by MTT assay; assay type: cell-based; conditions: l02, 72 h
MDA-MB-231 [4] = assay: Induction of cell cycle arrest in human MDA-MB-231 cells assessed as accumulation at S phase at 0.1875 uM after 12 hrs by propidium iodide staining-based flow cytometric analysis (reference value: 23.71%); assay type: functional
MDA-MB-231 [5] = assay: Induction of cell cycle arrest in human MDA-MB-231 cells assessed as accumulation at G2 phase at 0.75 uM after 12 hrs by propidium iodide staining-based flow cytometric analysis (reference value: 21.11%); assay type: functional
MDA-MB-231 [6] = assay: Antitumor activity against human MDA-MB-231 cells xenografted in BALB/c mouse assessed as tumor growth inhibition at 40 mg/kg, po measured every 3 days for 21 days; assay type: functional; conditions: MDA-MB-231, po, 504 h, time 21 day, read-out: TGI
[7] = target: T1, CDK6/cyclin D3 (Homo sapiens); assay: Inhibition of CDK6/Cyclin D3 (unknown origin) at 20 nM using ATP by mobility shift assay; assay type: protein-complex assay
MDA-MB-231 [8] = assay: Induction of cell cycle arrest in human MDA-MB-231 cells assessed as accumulation at S phase at 0.1875 uM after 12 hrs by propidium iodide staining-based flow cytometric analysis (reference value: 21.11%); assay type: functional
MDA-MB-231 [9] = assay: Induction of apoptosis in human MDA-MB-231 cells assessed as early apoptotic cells at 2.5 uM after 24 hrs by Annexin-V/PI-staining based flow cytometry (reference value: 2.67%); assay type: functional
CDK2/Cyclin A2 = CDK2/Cyclin A2 (Homo sapiens, UniProt P24941); assay: Inhibition of CDK2/cyclin A2 (unknown origin); assay type: protein-complex assay
MDA-MB-231 [10] = assay: Inhibition of clone formation in human MDA-MB-231 cells at 0.16 uM after 14 days by crystal violet staining based-colony formation assay; assay type: functional, cell-based; conditions: time 14.0 day
MDA-MB-231 [11] = assay: Potency index, ratio of IC50 for Palbociclib to IC50 for test compound for antiproliferative activity against human MDA-MB-231 cells assessed as reduction in cell viability after 72 hrs by MTT assay; assay type: functional
MDA-MB-231 [12] = assay: Induction of apoptosis in human MDA-MB-231 cells assessed as late apoptotic cells at 2.5 uM after 24 hrs by Annexin-V/PI-staining based flow cytometry (reference value: 3.02%); assay type: functional
MDA-MB-231 [13] = assay: Induction of apoptosis in human MDA-MB-231 cells assessed as early apoptotic cells at 5 uM after 24 hrs by Annexin-V/PI-staining based flow cytometry (reference value: 2.67%); assay type: functional

inhibition [1]: 95.3%
inhibition [7]: 81.6%
pIC50 (CDK2/Cyclin A2): 5.12
SMILES: CC(=O)c1c(C)c2cnc(Nc3ccc(N4CCN(C(=O)CCl)CC4)cn3)nc2n(C2CCCC2)c1=O
Activity (MDA-MB-231 [2]): 14.99%
inhibition at 0.625 µM [3]: 100%
Activity (L02): Non-Toxic
Activity (MDA-MB-231 [4]): 15.55%
Activity (MDA-MB-231 [5]): 16.49%
inhibition in vivo at 40 mg/kg (MDA-MB-231 [6]): 93.5%
Activity (MDA-MB-231 [8]): 13.82%
Activity (MDA-MB-231 [9]): 17.09%
inhibition (MDA-MB-231 [10]): Active
Ratio IC50 (MDA-MB-231 [11]): 4
Activity (MDA-MB-231 [12]): 31.65%
Activity (MDA-MB-231 [13]): 44.02%
